Laboratory results taken from ChEMBL document CHEMBL1201862, “PubChem BioAssay data set” (2004).
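Values below derive from 48-hour exposures of cells grown in 96-well plates, with endpoints linearly interpolated between the two concentrations bracketing the appropriate inhibition level. GI50 marks 50% less growth.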 Calls of active or inactive are those of the source. Cut-off read from the data, not from the text of the source: active = GI50 up to about 1.1 µM and inactive = higher.

Tests used:
Assay in all cases: DTP human tumour cell line panel, 48 h
OVCAR-3 = tested on: OVCAR-3
SK-MEL-28 = tested on: SK-MEL-28
SW-620 = tested on: SW-620
HOP-62 = tested on: HOP-62
SF-539 = tested on: SF-539
K562 = tested on: K562
T47D = tested on: T47D
A549 = tested on: A549
HCT-116 = tested on: HCT-116
ACHN = tested on: ACHN
COLO 205 = tested on: COLO 205
MCF7 = tested on: MCF7
M14 = tested on: M14
SR = tested on: SR
SF-268 = tested on: SF-268
EKVX = tested on: EKVX
NCI-H522 = tested on: NCI-H522
KM12 = tested on: KM12
UACC-257 = tested on: UACC-257
PC-3 = tested on: PC-3
RPMI-8226 = tested on: RPMI-8226
SK-MEL-2 = tested on: SK-MEL-2
SK-MEL-5 = tested on: SK-MEL-5
NCI-H23 = tested on: NCI-H23
UO-31 = tested on: UO-31
MOLT-4 = tested on: MOLT-4
MDA-MB-231 = tested on: MDA-MB-231
U-251 = tested on: U-251
SF-295 = tested on: SF-295
IGROV-1 = tested on: IGROV-1
OVCAR-8 = tested on: OVCAR-8
NCI/ADR-RES = tested on: NCI/ADR-RES
MDA-N = tested on: MDA-N
HT-29 = tested on: HT-29
HOP-92 = tested on: HOP-92
SNB-75 = tested on: SNB-75
SK-OV-3 = tested on: SK-OV-3
Malme-3M = tested on: Malme-3M
NCI-H226 = tested on: NCI-H226
BT-549 = tested on: BT-549
786-0 = tested on: 786-0
CCRF-CEM = tested on: CCRF-CEM
UACC-62 = tested on: UACC-62
MDA-MB-435 = tested on: MDA-MB-435
Hs-578T = tested on: Hs-578T
OVCAR-5 = tested on: OVCAR-5
A498 = tested on: A498
SN12C = tested on: SN12C
HCC 2998 = tested on: HCC 2998
HL-60 = tested on: HL-60
SNB-19 = tested on: SNB-19
NCI-H460 = tested on: NCI-H460
OVCAR-4 = tested on: OVCAR-4
TK-10 = tested on: TK-10
DU-145 = tested on: DU-145
HCT-15 = tested on: HCT-15
RXF 393 = tested on: RXF 393
LOX IMVI = tested on: LOX IMVI

`C=C(Br)C(C)(Br)CCC(Br)C(C)(C)Cl` (stereo not drawn) was tested, and the GI50 (OVCAR-3) was 18.6 µM (inactive), the GI50 (SK-MEL-28) was 16.3 µM (inactive) and the GI50 (SW-620) was 13 µM (inactive). For the same compound, the GI50 (HOP-62) was 23 µM (inactive), the GI50 (SF-539) was 16.8 µM (inactive) and the GI50 (K562) was 10.2 µM (inactive). The GI50 (T47D) was 20.5 µM (inactive), the GI50 (A549) was > 54.7 µM (inactive) and the GI50 (HCT-116) was 11.7 µM (inactive). For the same compound, the GI50 (ACHN) was 19.1 µM (inactive), the GI50 (COLO 205) was 18.5 µM (inactive) and the GI50 (MCF7) was 14.5 µM (inactive). The GI50 (M14) was 17.3 µM (inactive), the GI50 (SR) was 3.5 µM (inactive) and the GI50 (SF-268) was 17.9 µM (inactive). The GI50 (EKVX) was 22.8 µM (inactive), the GI50 (NCI-H522) was 6.62 µM (inactive) and the GI50 (KM12) was 16.6 µM (inactive). The GI50 (UACC-257) was 19.1 µM (inactive), the GI50 (PC-3) was 20.4 µM (inactive) and the GI50 (RPMI-8226) was 15.4 µM (inactive). The GI50 (SK-MEL-2) was 25.7 µM (inactive), the GI50 (SK-MEL-5) was 17.2 µM (inactive) and the GI50 (NCI-H23) was 16.3 µM (inactive). For the same compound, the GI50 (UO-31) was 17.7 µM (inactive), the GI50 (MOLT-4) was 2.54 µM (inactive) and the GI50 (MDA-MB-231) was 17.8 µM (inactive). For the same compound, the GI50 (U-251) was 16.2 µM (inactive), the GI50 (SF-295) was 16.9 µM (inactive) and the GI50 (IGROV-1) was 13.6 µM (inactive). The GI50 (OVCAR-8) was 17.8 µM (inactive), the GI50 (NCI/ADR-RES) was 23.7 µM (inactive) and the GI50 (MDA-N) was 19.2 µM (inactive). For the same compound, the GI50 (HT-29) was 17.9 µM (inactive), the GI50 (HOP-92) was 14.6 µM (inactive) and the GI50 (SNB-75) was 16.5 µM (inactive). For the same compound, the GI50 (SK-OV-3) was 27.8 µM (inactive), the GI50 (Malme-3M) was 20.1 µM (inactive) and the GI50 (NCI-H226) was 31 µM (inactive). The GI50 (BT-549) was 23.8 µM (inactive), the GI50 (786-0) was 17.8 µM (inactive) and the GI50 (CCRF-CEM) was 2.96 µM (inactive). For the same compound, the GI50 (UACC-62) was 20.4 µM (inactive), the GI50 (MDA-MB-435) was 19.4 µM (inactive) and the GI50 (Hs-578T) was 26.4 µM (inactive). For the same compound, the GI50 (OVCAR-5) was 18.8 µM (inactive), the GI50 (A498) was 20.8 µM (inactive) and the GI50 (SN12C) was 20.2 µM (inactive). The GI50 (HCC 2998) was 17.4 µM (inactive), the GI50 (HL-60) was 2.81 µM (inactive) and the GI50 (SNB-19) was 18.8 µM (inactive). The GI50 (NCI-H460) was 18.3 µM (inactive), the GI50 (OVCAR-4) was 18.9 µM (inactive) and the GI50 (TK-10) was 18.2 µM (inactive). For the same compound, the GI50 (DU-145) was 21.5 µM (inactive), the GI50 (HCT-15) was 13 µM and the GI50 (RXF 393) was 20 µM (inactive).

`COc1ccc(C2C(C#N)=C(S)N(C3OC(CO)C(O)C(O)C3O)C(c3ccccc3)=C2C(C)=O)cc1` (stereo not drawn) was tested, and the GI50 (OVCAR-3) was 22.2 µM (inactive), the GI50 (SK-MEL-28) was 91.8 µM (inactive) and the GI50 (SW-620) was 7.18 µM (inactive). The GI50 (HOP-62) was 67.1 µM (inactive), the GI50 (SF-539) was 78.2 µM (inactive) and the GI50 (K562) was 43.6 µM (inactive). The GI50 (T47D) was 6.18 µM (inactive), the GI50 (A549) was > 100 µM (inactive) and the GI50 (HCT-116) was 70.6 µM (inactive). For the same compound, the GI50 (ACHN) was 83.9 µM (inactive), the GI50 (COLO 205) was > 100 µM (inactive) and the GI50 (MCF7) was 72.1 µM (inactive). The GI50 (M14) was 65 µM (inactive), the GI50 (SR) was 40.3 µM (inactive) and the GI50 (SF-268) was 45.7 µM (inactive). For the same compound, the GI50 (NCI-H522) was 26.9 µM (inactive), the GI50 (KM12) was > 100 µM (inactive) and the GI50 (UACC-257) was 77.4 µM (inactive). For the same compound, the GI50 (PC-3) was 48.2 µM (inactive), the GI50 (RPMI-8226) was 51.3 µM (inactive) and the GI50 (SK-MEL-2) was 49.7 µM (inactive). The GI50 (SK-MEL-5) was 25.1 µM (inactive), the GI50 (NCI-H23) was > 100 µM (inactive) and the GI50 (UO-31) was > 100 µM (inactive). For the same compound, the GI50 (MOLT-4) was 28.1 µM (inactive), the GI50 (MDA-MB-231) was 95.5 µM (inactive) and the GI50 (U-251) was 53.2 µM (inactive). For the same compound, the GI50 (SF-295) was > 100 µM (inactive), the GI50 (IGROV-1) was > 100 µM (inactive) and the GI50 (OVCAR-8) was 63.7 µM (inactive). The GI50 (NCI/ADR-RES) was > 100 µM (inactive), the GI50 (MDA-N) was 37.2 µM (inactive) and the GI50 (HT-29) was 46.1 µM (inactive). For the same compound, the GI50 (HOP-92) was 46.1 µM (inactive), the GI50 (SNB-75) was 23.6 µM (inactive) and the GI50 (Malme-3M) was 70.6 µM (inactive). The GI50 (NCI-H226) was > 100 µM (inactive), the GI50 (BT-549) was > 100 µM (inactive) and the GI50 (786-0) was 67.3 µM (inactive). For the same compound, the GI50 (CCRF-CEM) was 63.1 µM (inactive), the GI50 (UACC-62) was 58.6 µM (inactive) and the GI50 (MDA-MB-435) was 32.6 µM (inactive). For the same compound, the GI50 (Hs-578T) was 45.3 µM (inactive), the GI50 (OVCAR-5) was > 100 µM (inactive) and the GI50 (A498) was > 100 µM (inactive). The GI50 (LOX IMVI) was 60.1 µM (inactive), the GI50 (SN12C) was > 100 µM (inactive) and the GI50 (HCC 2998) was 92 µM (inactive). For the same compound, the GI50 (HL-60) was 39.7 µM (inactive), the GI50 (SNB-19) was 89.3 µM (inactive) and the GI50 (NCI-H460) was 88.1 µM (inactive). The GI50 (OVCAR-4) was > 10 µM (inactive), the GI50 (TK-10) was > 100 µM (inactive) and the GI50 (DU-145) was > 100 µM (inactive). For the same compound, the GI50 (HCT-15) was 74.6 µM and the GI50 (RXF 393) was > 100 µM (inactive).
